Earlier results in US20100323983A1, “PHARMACEUTICAL OR COSMETIC PREPARATIONS FOR TOPICAL AND/OR PARENTERAL APPLICATION, PREPARATION METHODS THEREOF, AND USES THEREOF” (priority 2007, published 2010).

Settings: humans

excretion in the urine: less than 1 % of total clearance
Substance: hyaluronic acid
